# pIC50: −log10 of the molar value.
# Molecular target: T1, human CRTH2 (Homo sapiens, UniProt Q9Y5Y4)
# T1 construct: Full-length human CRTH2 cDNA was generated by polymerase chain reaction (PCR); expressed in transfected cells; host or cells: 293 cells stably transfected with pHLT124 (pCDNA3.1(+)), named 293(124)
# T1 sequence (Q9Y5Y4 1-395): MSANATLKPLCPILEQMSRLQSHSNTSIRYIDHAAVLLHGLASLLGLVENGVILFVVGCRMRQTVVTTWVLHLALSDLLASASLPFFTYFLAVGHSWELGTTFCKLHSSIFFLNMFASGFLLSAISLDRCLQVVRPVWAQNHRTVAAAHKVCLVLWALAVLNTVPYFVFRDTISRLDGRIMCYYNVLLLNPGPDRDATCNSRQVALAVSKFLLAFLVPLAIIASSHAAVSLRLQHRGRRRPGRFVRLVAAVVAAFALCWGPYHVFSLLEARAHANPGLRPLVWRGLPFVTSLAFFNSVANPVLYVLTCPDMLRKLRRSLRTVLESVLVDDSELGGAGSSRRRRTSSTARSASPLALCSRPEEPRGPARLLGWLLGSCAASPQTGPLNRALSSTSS
# Assay: Human CRTH2 binding assay (3H-PGD2 ligand binding, 293(124) cells)
# Settings: 3H-PGD2 binding to 293(124) cells stably expressing human CRTH2; room temperature, 2.5 h
# Protocol: Full-length human CRTH2 cDNA was generated by polymerase chain reaction (PCR) using human genomic DNA as template and subsequently cloned into pCDNA3.1(+) (Invitrogen), generating a CRTH2 expression plasmid pHLT124. The plasmid was transfected into 293 cells, […], using LipofectAMINE™ reagents (Gibco/BRL). G418 ([…]) was added to the culture 48 h after transfection and cells were maintained under selection for 3 weeks to ensure that all surviving cells stably expressed CRTH2. These cells are labeled as 293(124) hereafter.
# ^3H-PGD2 binding assay was performed using 293(124) cells. In brief, cells were washed and suspended in RPMI containing 0.5% BSA and 20 mM HEPES. Each assay contained 25,000 cells, appropriate amount of test compound when necessary and a mixture of 1 nM ^3H-PGD2 (Anmersham Pharmacia Biotech) and 30 nM of unlabeled PGD2 (Cayman Chemicals) in […] final volume. The cell mixture was incubated at room temperature for 2.5 h with shaking and the cells were separated from free ^3H-PGD2 and transferred onto a filter plate using a cell harvester. Radioactivity bound to the cells was measured on a liquid scintillation counter. Nonspecific binding was determined in the presence of […] of unlabeled PGD2.
row,Structure (SMILES),pIC50
1,"Cc1ccc(S(=O)(=O)Nc2cc(C(F)(F)F)ccc2Oc2ccc(CC(=O)O)cc2)cc1 [Example 1, {4-[2-(toluene-4-sulfonylamino)-4-trifluoromethyl-phenoxy]-phenyl}-acetic acid]",4.82 to 6.00
2,"O=C(O)Cc1ccc(Oc2ccc(C(F)(F)F)cc2NS(=O)(=O)c2cccc3ccccc23)cc1 [Example 2, {4-[2-(Naphthalene-1-sulfonylamino)-4-trifluoromethyl-phenoxy]-phenyl}-acetic acid]",4.82 to 6.00
3,"O=C(O)Cc1ccc(Oc2ccc(C(F)(F)F)cc2NC(=O)c2ccccc2)cc1 [Example 3, [4-(2-Benzoylamino-4-trifluoromethyl-phenoxy)-phenyl]-acetic acid]",4.82 to 6.00
4,"CS(=O)(=O)Nc1cc(C(F)(F)F)ccc1Oc1ccc(CC(=O)O)cc1 [Example 4, [4-(2-Methanesulfonylamino-4-trifluoromethyl-phenoxy)-phenyl]-acetic acid]",< 4.82
5,"O=C(O)Cc1cc(OCc2ccccc2)cc(C(F)(F)F)c1 [Example 5, (3-benzyloxy-5-trifluoromethyl-phenyl)-acetic acid]",4.82 to 6.00
6,"CCNC(=O)c1ccc(Oc2ccc(CCC(=O)O)cc2)c(NS(=O)(=O)c2ccccc2)c1 [Example 10, 3-[4-(2-Benzenesulfonylamino-4-ethylcarbamoyl-phenoxy)-phenyl]-propionic acid]",> 6.00
7,"CCNC(=O)c1ccc(Oc2ccc(CC(=O)O)cc2OC)c(NS(=O)(=O)c2ccc(Cl)cc2Cl)c1 [Example 12, (4-[2-(2,4-Dichloro-benzenesulfonyl-amino)-4-ethylcarbamoyl-phenoxy]-3-methoxy-phenyl)-acetic acid]",> 6.00
8,"CCNC(=O)c1ccc(S(=O)(=O)c2ccc(CC(=O)O)cc2)c(NS(=O)(=O)c2ccc(Cl)cc2Cl)c1 [Example 17, {4-[2-(2,4-dichloro-benzenesulfonyl-amino)-4-ethylcarbamoyl-benzenesulfonyl]-phenyl}-acetic acid]",4.82 to 6.00
9,"CCNC(=O)c1cc(NS(=O)(=O)c2ccc(Cl)cc2Cl)c2oc3c(Cl)cc(CC(=O)O)cc3c2c1 [Example 18, [4-chloro-6-(2,4-dichloro-benzenesulfonyl-amino)-8-ethylcarbamoyl-dibenzofuran-2-yl]-acetic acid]",> 6.00
10,"CCOC(=O)Cc1cccc(Oc2ccccc2[N+](=O)[O-])c1 [Example 31, Ethyl 3-(2-nitrophenoxy)phenylacetate]",< 4.82
11,"O=C(O)Cc1cccc(Oc2ccc(C(=O)c3ccccc3)cc2NS(=O)(=O)c2ccccc2)c1 [Example 33, 3-(4-Benzoyl-2-benzenesulfonylamino-phenoxy)phenylacetic acid]",4.82 to 6.00
12,"O=C(O)Cc1cccc(Oc2ccc(Cl)cc2NS(=O)(=O)c2ccccc2)c1 [Example 35, 3-(4-Chloro-2-benzenesulfonylamino-phenoxy)phenylacetic acid]",> 6.00
13,"COc1ccc(Oc2cccc(CC(=O)O)c2)c(NS(=O)(=O)c2ccccc2)c1 [Example 36, 3-(4-Methoxy-2-benzenesulfonylamino-phenoxy)phenylacetic acid]",4.82 to 6.00
14,O=C(O)Cc1cn(Cc2ccccc2NCc2ccccc2)c2ccccc12 [Example 63],4.82 to 6.00
15,Cc1ccc(S(=O)(=O)Nc2ccccc2Cc2ccc(CC(=O)O)cc2)cc1 [Example 64],> 6.00
16,CCNC(=O)c1ccc(C(=O)c2cc(CC(=O)O)ccc2OC)c(NS(=O)(=O)c2ccc(C)cc2)c1 [Example 70],> 6.00
17,"CCNC(=O)c1ccc(Oc2ccc(Cc3nnn[nH]3)cc2OC)c(NS(=O)(=O)c2ccc(Cl)cc2Cl)c1 [Example 75, 3-(2,4-Dichloro-benzenesulfonylamino)-N-ethyl-4-[2-methoxy-4-(1H-tetrazol-5-ylmethyl)-phenoxy]-benzamide]",> 6.00
18,"CCNC(=O)c1ccc(Oc2cc(CC(=O)O)ccc2OC)c(NC(=O)OC(C)C)c1 [Example 77, [3-(4-Ethylcarbamoyl-2-isopropoxycarbonylamino-phenoxy)-4-methoxy-phenyl]-acetic acid]",4.82 to 6.00

# Source: patent US7541383B2, “Asthma and allergic inflammation modulators” (Amgen Inc., priority 2002, dated 2009)
